Publication PMC5447021, “TNF Lectin-Like Domain Restores Epithelial Sodium Channel Function in Frameshift Mutants Associated with Pseudohypoaldosteronism Type 1B” (Frontiers in Immunology, 2017)
Entries after “also recorded” stand apart in the source; their conditions may differ.

Assays:
[1] = target: T1, α-hENaC (Homo sapiens, UniProt P37088); set-up: method as in PMID 24077967; conditions: α-hENaC alone, control current 55.3 ± 5.5 pA, mean ± S.E.; cited from earlier work
T1 construct: expressed in transfected cells; host or cells: HEK-293
T1 sequence (P37088 1-669): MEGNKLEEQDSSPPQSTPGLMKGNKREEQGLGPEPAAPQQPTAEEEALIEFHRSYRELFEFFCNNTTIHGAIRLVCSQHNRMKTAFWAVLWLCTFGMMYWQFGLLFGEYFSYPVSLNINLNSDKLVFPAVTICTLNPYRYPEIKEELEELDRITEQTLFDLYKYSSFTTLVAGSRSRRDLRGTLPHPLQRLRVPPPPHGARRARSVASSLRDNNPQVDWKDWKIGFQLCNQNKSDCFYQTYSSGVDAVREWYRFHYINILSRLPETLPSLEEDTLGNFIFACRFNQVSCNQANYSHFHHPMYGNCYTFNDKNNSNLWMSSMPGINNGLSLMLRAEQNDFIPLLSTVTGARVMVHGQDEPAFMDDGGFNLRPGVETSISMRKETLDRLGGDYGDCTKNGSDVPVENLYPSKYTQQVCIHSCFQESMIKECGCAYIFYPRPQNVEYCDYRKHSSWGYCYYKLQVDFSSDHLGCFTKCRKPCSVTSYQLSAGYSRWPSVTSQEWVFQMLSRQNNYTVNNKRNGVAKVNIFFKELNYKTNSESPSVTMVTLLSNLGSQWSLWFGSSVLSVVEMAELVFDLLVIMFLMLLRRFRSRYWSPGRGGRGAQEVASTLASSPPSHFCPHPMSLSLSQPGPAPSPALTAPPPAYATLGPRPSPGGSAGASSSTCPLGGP

[2] = system: δD522Xβγ-ENaC; conditions: cited from earlier work
[3] = system: ENaC PHA1B point mutants; conditions: PHA1B point mutants with WT subunits; cited from earlier work
Source text: PHA1B is a very rare inherited disease caused by mutations in the genes encoding the α (SCNN1A), β (SCNN1B), or γ (SCNN1G), subunit of ENaC, resulting in defective transepithelial sodium transport ([28]). […] Loss-of-function mutations in ENaC genes translate into the salt-wasting genetic disease PHA1B ([33], [41]). […] Remarkably, amiloride-sensitive currents were restored ...

[4] = system: δ-ENaC; conditions: HEK-293, 5 and 10 min; returns after 1 h; cited from earlier work
[5] = system: βE539A,E542A γE548A,E551A-ENaC (βM2γM2); assay: Whole-cell patch clamp, βM2γM2-ENaC; type: cell-based, human; conditions: HEK-293, 200 nM solnatide
Description: Point mutations of α-, β-, γ- and δ-hENaC and PHA1B frameshift mutations of α-hENaC were prepared with the QuikChange Lightning Site-Directed Mutagenesis Kit (Agilent Technologies, CA, USA). Mutagenic primers were designed individually with the Primer Design Program provided on the producer’s website or for the frameshift mutations the same base changes as reported in patients (see Table 2) were performed. Primers were ordered from Sigma-Aldrich, Vienna, Austria.
HEK-293 cells were transfected 1 day after cell seeding using X-tremeGENE HP DNA transfection reagent (Roche Diagnostics, Mannheim, Germany) according to the manufacturer’s protocol. A set of WT or mutant αβγ- or δβγ-hENaC, or α-, β-, γ-, or δ-hENaC alone was used, and the ratio of DNA to transfection reagent was 1:3. The expression was highest 48–72 h after transfection.
Electrophysiological experiments were performed as described in detail by Shabbir et al. ([16]). […] Currents were recorded with the patch clamp method in the whole-cell mode. The chamber contained 1 ml of the bath solution of the following composition (in mM): 145 NaCl, 2.7 KCl, 1.8 CaCl2, 2 MgCl2, 5.5 glucose, and 10 HEPES, adjusted to pH 7.4 with 1 M NaOH solution. Micropipettes were pulled from thin-walled borosilicate glass capillaries (Harvard Apparatus, Holliston, MA, USA) with a DMZ Zeitz Puller to obtain electrode resistances ranging from 2 to 5 MΩ. […]

For `C[C@@H]1NC(=O)CNC(=O)[C@H](CCC(=O)O)NC(=O)[C@@H]2CCCN2C(=O)[C@H]([C@@H](C)O)NC(=O)[C@H](CCC(=O)O)NC(=O)[C@H](CCCNC(=N)N)NC(=O)[C@H](CCC(N)=O)NC(=O)CNC(=O)[C@@H](N)CSSC[C@@H](C(=O)O)NC(=O)[C@H](Cc2ccc(O)cc2)NC(=O)[C@H](Cc2c[nH]c3ccccc23)NC(=O)[C@@H]2CCCN2C(=O)[C@H](CCCCN)NC(=O)[C@H](C)NC(=O)[C@H](CCC(=O)O)NC1=O` [solnatide, L-cysteine, L-cysteinylglycyl-L-glutaminyl-L-arginyl-L-α-glutamyl-L-threonyl-L-prolyl-L-α-glutamylglycyl-L-alanyl-L-α-glutamyl-L-alanyl-L-lysyl-L-prolyl-L-tryptophyl-L-tyrosyl-, cyclic (1→17)-disulfide], the “Maximal induced current, solnatide” value [1] is given as 11.3 ± 6.2 pA, the “Effect of solnatide on amiloride-sensitive current” value [2] is given as “a residual albeit non-significant increase in the amiloride-sensitive current” and the “Current increase, glycosylation sites removed” value ([2]; glycosylation sites in extracellular loop removed by mutation) is given as “small increase was not seen”. For the same compound, the “Restoration of amiloride-sensitive currents” value [3] was “restored to WT control levels; also recorded: restoring current levels in these mutant ENaC-expressing cells to WT levels or even higher”, the “Membrane abundance, solnatide” value [4] was “significant statistically” and the “Effect of solnatide on current (words)” value ([5]; n = 3) was “A small increase in the amiloride-sensitive Na^+ current was still observed; also recorded: still able to activate βM2γM2-ENaC (not significant) to an equal extent as WT βγ-ENaC”. The “Effect of solnatide on current (words)” value ([5]; n = 3, listed as Solnatide) was “still increased the amiloride-sensitive sodium current in these mutants”.
